Measured values published in patent publication US10351827B2, “Method for differentiating induced pluripotent stem cells into renal proximal tubular cell-like cells” (priority 2013, dated 2019).
Like-named read-outs stand apart in the source and are kept apart here.

Experiments:
PTC in humans = settings: cited from earlier work
HPTCs = settings: similar experiments performed with HPTCs; cited from earlier work
[1] = tested on: hiPSC-derived HPTC-like cells
[2] = tested on: iPS(Foreskin)-4-derived d8 HPTC-like cells
OCT2 = OCT2 (Homo sapiens, UniProt O15244); settings: co-incubation of 100 μg/ml rifampicin with 2 mM cimetidine, iPS(Foreskin)-4-derived d8 cells
[3] = tested on: hiPSC-derived HPTC-like cells; assay: nephrotoxicology in vitro model based on interleukin-6/interleukin-8 expression (Example 1)
[4] = 1 μg/ml, overnight (16 h), qPCR, normalized to vehicle control (=1), mean +/- s.d., n=3
[5] = 10 μg/ml, overnight (16 h), qPCR, normalized to vehicle control (=1), mean +/- s.d., n=3
[6] = 100 μg/ml, overnight (16 h), qPCR, normalized to vehicle control (=1), mean +/- s.d., n=3
[7] = 1,000 μg/ml, overnight (16 h), qPCR, normalized to vehicle control (=1), mean +/- s.d., n=3

Sequence of OCT2 (O15244 whole entry): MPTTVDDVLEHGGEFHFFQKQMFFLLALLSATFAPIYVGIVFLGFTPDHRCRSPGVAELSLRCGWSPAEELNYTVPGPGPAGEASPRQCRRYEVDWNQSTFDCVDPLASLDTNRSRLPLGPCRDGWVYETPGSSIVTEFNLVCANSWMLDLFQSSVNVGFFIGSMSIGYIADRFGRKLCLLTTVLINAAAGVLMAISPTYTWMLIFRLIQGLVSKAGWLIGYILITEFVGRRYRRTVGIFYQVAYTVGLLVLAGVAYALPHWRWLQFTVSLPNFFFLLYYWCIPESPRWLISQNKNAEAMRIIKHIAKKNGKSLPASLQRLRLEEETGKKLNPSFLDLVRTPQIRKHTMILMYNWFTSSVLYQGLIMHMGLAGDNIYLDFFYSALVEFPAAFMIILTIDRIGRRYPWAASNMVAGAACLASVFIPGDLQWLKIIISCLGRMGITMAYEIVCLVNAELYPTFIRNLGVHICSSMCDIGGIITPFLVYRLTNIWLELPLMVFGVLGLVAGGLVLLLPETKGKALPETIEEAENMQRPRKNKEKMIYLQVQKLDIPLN

| Compound | nephrotoxicity / toxicity for PTC in humans (PTC in humans) | IL6 Expression Levels ([2]; human, 16 h, 1 μg/ml) | IL8 Expression Levels ([2]; human, 16 h, 1 μg/ml) | IL6 Expression Levels ([2]; human, 16 h, 10 μg/ml) | IL8 Expression Levels ([2]; human, 16 h, 10 μg/ml) | IL6 Expression Levels ([2]; human, 16 h, 100 μg/ml) | IL8 Expression Levels ([2]; human, 16 h, 100 μg/ml) | IL6 Expression Levels ([2]; human, 16 h, 1000 μg/ml) | IL8 Expression Levels ([2]; human, 16 h, 1000 μg/ml) | also measured |
| --- | --- | --- | --- | --- | --- | --- | --- | --- | --- | --- |
| Cl[C@H]1[C@H](Cl)[C@@H](Cl)[C@@H](Cl)[C@H](Cl)[C@H]1Cl [Lindane] | nephrotoxicants that do not damage PTC directly |  |  |  |  |  |  |  |  |  |
| CC(=O)OCC1=C(C(=O)O)N2C(=O)[C@@H](NC(=O)CCC[C@@H](N)C(=O)O)[C@H]2SC1 [Cephalosporin C] | directly toxic for PTC |  |  |  |  |  |  |  |  |  |
| Gentamicin | directly toxic for PTC |  |  |  |  |  |  |  |  | cell numbers after treatment (HPTCs): a decrease in cell numbers was not observed |
| CO[C@H]1/C=C/O[C@@]2(C)Oc3c(C)c(O)c4c(O)c(c(/C=N/N5CCN(C)CC5)c(O)c4c3C2=O)NC(=O)/C(C)=C\C=C\[C@H](C)[C@H](O)[C@@H](C)[C@@H](O)[C@@H](C)[C@H](OC(C)=O)[C@@H]1C [Rifampicin] |  | 5.8 ± 0.9 | 2.5 ± 0.4 | 4.5 ± 0.3 | 3.4 ± 0.3 | 2.3 ± 0.2 | 9.7 ± 0.3 | 9.3 ± 0.6 | 18.2 ± 1.2 | IL-6 expression after treatment [1]: increase; IL-8 expression after treatment [1]: increase; increase of IL6 expression ([2]; human, 16 h, 100 μg/ml): ~17 fold; increase of IL8 expression ([2]; human, 16 h, 100 μg/ml): ~18 fold |
| CN/C(=N/CCSCc1nc[nH]c1C)NC#N [cimetidine] |  |  |  |  |  |  |  |  |  | reduction of rifampicin-induced IL6 expression (OCT2): 40%; reduction of rifampicin-induced IL8 expression (OCT2): 26% |
| [Cl-].[Li+] [Lithium chloride] | nephrotoxicants that do not damage PTC directly |  |  |  |  |  |  |  |  |  |
| CC1=C2C(=CO[C@H](C)[C@H]2C)C(O)=C(C(=O)O)C1=O [Citrinin] | directly toxic for PTC |  |  |  |  |  |  |  |  | increase of IL6 expression ([2]; human): ~6 fold; increase of IL8 expression ([2]; human): no increase in IL8 expression was observed |
| C[n+]1ccc(-c2cc[n+](C)cc2)cc1 [Paraquat] | directly toxic for PTC |  |  |  |  |  |  |  |  | IL-6 expression after treatment [3]: increase; cell numbers after treatment (HPTCs): a decrease in cell numbers was not observed |
| OCCO [Ethylene glycol] | nephrotoxicants that do not damage PTC directly |  |  |  |  |  |  |  |  |  |
| NC[C@H]1O[C@H](O[C@H]2[C@H](O)[C@@H](O[C@H]3O[C@H](CO)[C@@H](O)[C@H](N)[C@H]3O)[C@H](N)C[C@@H]2N)[C@H](N)C[C@@H]1O [Tobramycin] |  | 1.3 ± 0.1 | 0.5 ± 0.1 | 1.3 ± 0.1 | 0.6 ± 0.1 | 1.4 ± 0.1 | 0.9 ± 0.3 | 2.7 ± 0.4 | 25.5 ± 1.5 |  |
| CC(=O)Nc1ccc(O)cc1 [Acetaminophen] |  | 1.3 ± 0.0 | 0.8 ± 0.3 | 1.2 ± 0.1 | 1.2 ± 0.2 | 1.4 ± 0.2 | 0.5 ± 0.1 | 0.3 ± 0.1 | 0.1 ± 0.0 |  |
| COc1cccc2c1cc([N+](=O)[O-])c1c(C(=O)O)cc3c(c12)OCO3 [Aristolochic acid] |  |  |  |  |  |  |  |  |  | IL6 Expression Levels [2, 4]: 3.9 ± 0.5; IL8 Expression Levels [2, 4]: 5.0 ± 0.8; IL6 Expression Levels [2, 5]: 3.3 ± 0.2; IL8 Expression Levels [2, 5]: 4.8 ± 0.6; IL6 Expression Levels [2, 6]: 7.3 ± 1.6; IL8 Expression Levels [2, 6]: 43.5 ± 7.2; IL6 Expression Levels [2, 7]: 9.3 ± 0.5; IL8 Expression Levels [2, 7]: 1.6 ± 0.9 |
| COc1ccc(C[C@H](N)C(=O)N[C@H]2[C@@H](O)[C@H](n3cnc4c(N(C)C)ncnc43)O[C@@H]2CO)cc1 [Puromycin] |  | 1.9 ± 0.2 | 0.8 ± 0.2 | 14.1 ± 1.2 | 255.7 ± 28.2 | 29.0 ± 1.2 | 3,284.1 ± 1,069.3 | 26.6 ± 4.3 | 3,852.3 ± 309.9 |  |
